Measurements taken from patent US20250257357A1, “TREATMENT OF H3.3-MUTANT BRAIN CANCER WITH PNKP INHIBITORS” (UNIVERSITE PARIS CITE, priority 2022, published 2025).

Test system: Hela cells
Assay: RAD51 and 53BP1 repair foci by immunofluorescence in Hela cells with EZH2 inhibition
Assay type: cell-based, human
Conditions: 72 h, 1 μM, damaged with camptothecin (3 h, 0.1 μM), FIG. 2B
Protocol: Camptothecin (CPT, Sigma-Aldrich) was used at 0.1 μM for 3 h, or at 1 μM for 1 or 3 h for iPOND in human cells, and at 5 or 10 μM in yeast cells; hydroxyurea (HU, Sigma-Aldrich) at 2 mM for 3 h; mitomycin C (MMC, Sigma-Aldrich) at 200 ng/ml and 25 ng/ml for 24 h for repair foci analyses and metaphase spreads, respectively; bleomycin (Bleo, Sigma-Aldrich) at 20 µg/mL for 3 h. An overnight treatment with 2 mM Thymidine followed by 3 h release in fresh medium was used to enrich cells in S phase for iPOND experiments (70-75% of cells were in S phase as evaluated by FACS). The EZH2 inhibitor GSK126 (EZH2i, Selleckchem) was used at 1 μM for 72 h.
Cells grown on glass coverslips (VWR) were either fixed directly with 2% paraformaldehyde (PFA) and permeabilized with 0.2% Triton X-100 in PBS or pre-extracted before fixation with 0.5% Triton X-100 in CSK buffer (Cytoskeletal buffer: 10 mM PIPES pH 7.0, 100 mM NaCl, 300 mM sucrose, 3 mM MgCl2) to remove soluble proteins (not bound to chromatin) and then fixed with 2% PFA. […] Images were mounted with Adobe Photoshop applying the same treatment of fluorescence levels to all images from the same experiment. […] The position of the LacO array was determined based on mCherry-LacR signal. DNA repair and PLA foci were identified and counted by using the find maxima function (Fiji software), on maximum intensity z-projections in the case of PLA foci. […]

CC[C@H](C)n1cc(C)c2c(C(=O)NCc3c(C)cc(C)[nH]c3=O)cc(-c3ccc(N4CCNCC4)nc3)cc21 [EZH2i, GSK126]
RAD51 and 53BP1 foci (DNA repair defect): did not recapitulate the DNA repair defect
